We go through three compounds from paper PMC5840523, “Assessment of a pretomanid analogue library for African trypanosomiasis: Hit-to-lead studies on 6-substituted 2-nitro-6,7-dihydro-5H-imidazo[2,1-b][1,3]thiazine 8-oxides” (Bioorganic & Medicinal Chemistry Letters, 2018).

One series relates to T. b. brucei. On the set-up: method as in PMID 20439607. As to conditions: read-out: IC50 versus T. b. brucei; cited from earlier work.
Details of series [1]: method as in PMID 25141257. As to conditions: cited from earlier work.
A short description of the next series: Mouse liver S9 stability. In kind it is in vitro ADME. As to conditions: CD-1, mouse, mouse liver S9 subcellular fraction, half-life in mouse liver S9 fraction; read-out: Mouse S9 t1/2.
Series [2] is described as follows: Mouse pharmacokinetics (plasma, whole blood, brain). In kind it is in vivo, male CD-1 mice. The following applies: for bioavailability: from dose normalised AUClast values, read-out: F (oral bioavailability); for Vd: read-out: Vdss. On the procedure:
In order to determine the suitability of the more permeable hits for in vivo efficacy studies, we first measured their aqueous solubilities, and their tendencies to metabolise, following a 1 h incubation with CD-1 mouse liver S9 subcellular fractions.[14] […] This led us to probe their in vivo pharmacokinetic (PK) profiles in mice, examining concentration levels in plasma, whole blood and brain tissue following both intravenous and oral administration (Table 2; for further experimental details, see the Supporting Information). […]
Mouse Pharmacokinetics. The in-life portion of PK testing was carried out by ViviSource Laboratories, Inc., Mass achusetts, USA, and PK samples were anal ysed by Sc ynexis, Inc.
Test compounds (9, 12, 17, and 19) w er e each administered as single doses to groups of 10 male CD-1 mice by bolus intravenous injection or oral gavage. Intravenous dosing (at a nominal dose of 2 mg/kg) emplo yed a solution vehicle comprising either 20% EtOH, 20% propylene gl ycol, and 30% PEG -400 in normal saline (for powders 9, 17, and 19) or 0.5% (hydrox yprop yl)meth ylcellulose, 0.4% Tween 80, 0.5% benz yl alcohol, and 20% DMSO i n deionised water (for oil 12). […]
in 0.5% methylcellulose, 0.08% Tween 80 in water ( ex cept fo r oil 12, where the formulation additionally contained 20% DMSO). […]

A further series is described as follows: in vitro. As to conditions: dog, MDCK-MDR1, Permeability Papp.
Series [3] in a line: Kinetic aqueous solubility in pH 7.4 PBS. In kind it is physicochemical. From the text: Table 1 Inhibitory potency, metabolic stability, aqueous solubility, and MDCK-MDR1 cell permeability for 15 screening hits against T. b. brucei. | column: Solubility ^c / (µg/mL)
A further series concerns L929 mouse fibroblasts. Nature of the series: Cytotoxicity toward L929 mouse fibroblasts (Scynexis). In kind it is cell-based.
Another series relates to T. b. brucei 427. Nature of the series: T. b. brucei 427 growth inhibition (Scynexis). In kind it is cell-based, Trypanosoma brucei brucei.
For series [4] the following is noted: late stage HAT patients; cited from earlier work.
Setting [5] is: male, CD-1, mouse, brain, intravenous, corrected doses 0.5, 1.1, 2.9, 2.0 mg/kg for 9, 12, 17, 19.
[6] abbreviates: male, CD-1, mouse, brain, oral, corrected doses 62, 50, 78, 49 mg/kg for 9, 12, 17, 19.
Setting [7] is: male, CD-1, mouse, plasma, intravenous, corrected doses 0.5, 1.1, 2.9, 2.0 mg/kg for 9, 12, 17, 19.
[8] abbreviates: male, CD-1, mouse, plasma, oral, corrected doses 62, 50, 78, 49 mg/kg for 9, 12, 17, 19.
[9] abbreviates: male, CD-1, mouse, whole blood, intravenous, corrected doses 0.5, 1.1, 2.9, 2.0 mg/kg for 9, 12, 17, 19.
Setting [10] is: male, CD-1, mouse, whole blood, oral, corrected doses 62, 50, 78, 49 mg/kg for 9, 12, 17, 19.

Converted amounts (≈) assume the structure as drawn. Where two headings read alike, the source gives them in different places. Bounds are passed on as bounds.

As a reminder, the IC50 is the concentration needed to halve the response being measured. Take `O=[N+]([O-])c1cn2c(n1)OC[C@@H](OCc1ccc(OC(F)(F)F)cc1)C2` [Compound 6, pretomanid]: the IC50 with T. b. brucei is 38 µM. In series [1], the “oral half-life in mouse lung tissue” value was 4.8 h.
The term bioavailability denotes dose-corrected exposure relative to a reference, in per cent. Broadly, the AUC(0-t) is the area under the concentration-time curve up to a stated or last time point. Read a low AUC(0-t) as less exposure. Broadly, the clearance is the volume of plasma or blood freed of the substance per unit of time. The Cmax is the highest concentration seen after dosing. The Tmax is the time at which the peak concentration occurs. A word on the Papp: it is a coefficient for how fast a substance crosses the barrier. Low values mean poor permeation, high ones ready permeation. The solubility is the concentration that dissolves in the medium under given conditions. High values mean much dissolved substance, low ones little dissolved substance. With `O=[N+]([O-])c1cn2c(n1)OC[C@@H](NCc1ccc(OC(F)(F)F)cc1)C2` [Compound 17], the half-life in the series “Mouse liver S9 stability” was greater than 350 min; in [2] (male, CD-1, mouse, po, 78 mg/kg, over plasma, whole blood, brain, read-out: oral half-life) it was 72 to 90 min; in [2] (male, CD-1, mouse, brain, intravenous, corrected doses 0.5, 1.1, 2.9, 2.0 mg/kg for 9, 12, 17, 19, read-out: t1/2 (converted)) it was 15.6 min; in [2] (male, CD-1, mouse, brain, oral, corrected doses 62, 50, 78, 49 mg/kg for 9, 12, 17, 19, read-out: t1/2 (converted)) it was 78 min; in series [2] (male, CD-1, mouse, plasma, intravenous, corrected doses 0.5, 1.1, 2.9, 2.0 mg/kg for 9, 12, 17, 19, read-out: t1/2 (converted)), 28.8 min; in series [2] (male, CD-1, mouse, plasma, oral, corrected doses 62, 50, 78, 49 mg/kg for 9, 12, 17, 19, read-out: t1/2 (converted)), 72 min. Moreover, the half-life in series [2] (male, CD-1, mouse, whole blood, intravenous, corrected doses 0.5, 1.1, 2.9, 2.0 mg/kg for 9, 12, 17, 19, read-out: t1/2 (converted)) is 558 min; in series [2] (male, CD-1, mouse, whole blood, oral, corrected doses 62, 50, 78, 49 mg/kg for 9, 12, 17, 19, read-out: t1/2 (converted)), 90 min. In addition, the “time beyond which exposure above the MIC is inadequate” value in [2] (male, CD-1, mouse, in vivo, po) is given as roughly 2 h. Besides, the bioavailability in series [2] (male, CD-1, mouse, po, brain) amounted to 100%; in series [2] (male, CD-1, mouse, po, plasma), 100%; in series [2] (male, CD-1, mouse, po, whole blood), 100%. For the same compound, the AUC(0-t) was determined as 962 ng·h/mL in series [2] (setting [5]); 50900 ng·h/mL in series [2] (setting [6]); 418 ng·h/mL in series [2] (setting [7]); 20500 ng·h/mL in series [2] (setting [8]); 1100 ng·h/mL in series [2] (setting [9]); 42200 ng·h/mL in series [2] (setting [10]). The results for the clearance in [2] (setting [5]), in series [2] (setting [7]) and in series [2] (setting [9]) were 48.3 mL/min/kg, 113 mL/min/kg and 40 mL/min/kg, respectively. Further, the Vd turned out to be 2.3 L/kg in series [2] (setting [5]), 4.7 L/kg in [2] (setting [7]) and 8.1 L/kg in series [2] (setting [9]). Further, the Cmax was determined as 35000 ng/mL in [2] (setting [6]), 12000 ng/mL in series [2] (setting [8]) and 26000 ng/mL in [2] (setting [10]). Besides, the Tmax in series [2] (setting [6]) is 30 min; in [2] (setting [8]), 60 min; in [2] (setting [10]) it was 30 min. Also, the “concentration levels in brain tissue relative to plasma (fold higher)” value in series [2] (mouse, in vivo) is 2- to 3 fold. In the series “in vitro”, this compound gave a Papp at 1 h, 3 µM of 80.4 ×10⁻⁶ cm/s. Further, the solubility in series [3] is greater than 72 µg/mL. In addition, the IC50 in the series on L929 mouse fibroblasts is greater than 10 µg/mL; with T. b. brucei 427 (Trypanosoma brucei, growth inhibition of T. b. brucei 427, mean ± SD) it was 0.78 ± 0.01 µg/mL (≈ 2.18 µM). Also, the “oral half-life in mouse lung tissue” value in series [1] was 1.3 h. In the series with T. b. brucei 427 (L929 vs T. b. brucei), the “Selectivity Index” value is recorded as greater than 13.
`Nc1nc(N)nc(Nc2ccc([As]3SCC(CO)S3)cc2)n1` (stereo not shown) [melarsoprol]: the “death of patients caused by treatment” value in series [4] is reported as roughly 5%.
